The numbers were not newly measured in patent publication US20170007591A1, “Composition to Mitigate Spikes in Blood Sugar” (Panacea Scientific, Inc., priority 2015, published 2017), which cites them from elsewhere.

For one data set, the target named is μ-opioid receptor (Homo sapiens, UniProt P35372). Conditions: acts as non-selective antagonist.
The next data set deals with δ-opioid receptor (Homo sapiens, UniProt P41143). The following applies: acts as non-selective antagonist.
The next data set concerns the target κ-opioid receptor (Homo sapiens, UniProt P41145). The following applies: acts as non-selective antagonist.
A further data set has as its target CYP2C9 (Homo sapiens, UniProt P11712). Conditions: in humans.
The conditions of data set [1]: rats; 20 mg piperine dose with 2 g/kg dose of curcumin.

Chain of μ-opioid receptor (P35372 whole entry): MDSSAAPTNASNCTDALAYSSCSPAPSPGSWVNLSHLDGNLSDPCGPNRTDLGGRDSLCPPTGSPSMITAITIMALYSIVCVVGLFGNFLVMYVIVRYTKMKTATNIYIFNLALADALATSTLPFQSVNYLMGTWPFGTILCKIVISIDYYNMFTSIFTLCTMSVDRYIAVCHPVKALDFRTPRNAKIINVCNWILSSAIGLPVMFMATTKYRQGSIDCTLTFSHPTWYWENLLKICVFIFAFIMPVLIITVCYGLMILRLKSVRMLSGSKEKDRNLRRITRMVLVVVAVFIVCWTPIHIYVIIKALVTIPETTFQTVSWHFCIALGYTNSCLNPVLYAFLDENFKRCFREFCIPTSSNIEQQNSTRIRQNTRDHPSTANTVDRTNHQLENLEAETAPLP
Chain of δ-opioid receptor (P41143 whole entry): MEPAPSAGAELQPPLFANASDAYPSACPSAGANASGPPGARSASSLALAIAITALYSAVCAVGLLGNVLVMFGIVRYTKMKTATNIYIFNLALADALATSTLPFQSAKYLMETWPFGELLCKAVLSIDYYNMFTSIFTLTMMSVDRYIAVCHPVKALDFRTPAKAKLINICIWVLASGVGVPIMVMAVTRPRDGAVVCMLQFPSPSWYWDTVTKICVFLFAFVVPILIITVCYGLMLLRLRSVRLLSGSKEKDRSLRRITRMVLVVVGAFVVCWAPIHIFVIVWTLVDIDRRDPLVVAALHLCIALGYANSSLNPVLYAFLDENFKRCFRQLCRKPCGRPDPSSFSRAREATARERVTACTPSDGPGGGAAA
Chain of CYP2C9 (P11712 whole entry): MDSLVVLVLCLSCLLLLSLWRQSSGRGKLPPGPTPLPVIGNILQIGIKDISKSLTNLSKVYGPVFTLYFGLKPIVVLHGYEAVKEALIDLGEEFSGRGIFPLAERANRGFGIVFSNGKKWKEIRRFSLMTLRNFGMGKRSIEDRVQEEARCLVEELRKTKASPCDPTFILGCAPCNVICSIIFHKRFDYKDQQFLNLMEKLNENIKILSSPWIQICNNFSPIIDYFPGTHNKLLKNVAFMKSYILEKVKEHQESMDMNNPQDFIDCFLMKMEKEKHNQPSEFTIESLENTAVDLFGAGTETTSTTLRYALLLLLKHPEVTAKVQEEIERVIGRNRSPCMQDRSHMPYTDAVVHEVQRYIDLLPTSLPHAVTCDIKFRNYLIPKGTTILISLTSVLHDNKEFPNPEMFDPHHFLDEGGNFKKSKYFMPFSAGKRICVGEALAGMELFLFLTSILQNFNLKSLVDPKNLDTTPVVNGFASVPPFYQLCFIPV
Chain of κ-opioid receptor (P41145 whole entry): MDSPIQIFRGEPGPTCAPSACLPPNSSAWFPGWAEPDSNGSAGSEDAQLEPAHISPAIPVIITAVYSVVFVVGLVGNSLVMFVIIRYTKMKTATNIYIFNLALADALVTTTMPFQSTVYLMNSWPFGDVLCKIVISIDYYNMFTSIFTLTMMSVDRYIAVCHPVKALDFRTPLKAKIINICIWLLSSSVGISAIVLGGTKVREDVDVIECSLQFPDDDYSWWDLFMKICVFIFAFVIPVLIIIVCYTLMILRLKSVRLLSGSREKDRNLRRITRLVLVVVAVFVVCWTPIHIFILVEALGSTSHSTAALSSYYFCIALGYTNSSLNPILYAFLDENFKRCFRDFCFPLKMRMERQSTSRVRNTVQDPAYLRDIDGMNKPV

Regarding `O=c1cc(-c2ccc(O)cc2)oc2cc(O)cc(O)c12` [apigenin, 4′,5,7-trihydroxyflavone], the “affinity for μ-opioid receptor” value on μ-opioid receptor was “nonomolar affinity”. For the same compound, the “affinity for δ-opioid receptor” value on δ-opioid receptor was “nonomolar affinity”. Moreover, at κ-opioid receptor, the “affinity for κ-opioid receptor” value is on record as “nonomolar affinity”. Also, the “inhibition of CYP2C9” value at CYP2C9 is “inhibits the enzyme CYP2C9”.
In the case of `O=C(/C=C/C=C/c1ccc2c(c1)OCO2)N1CCCCC1` [piperine], in data set [1], the “increase of the bioavailability of curcumin” value is 154%.
